Literature values as cited in patent publication US7851190B2, “Biosynthetic gene cluster for leptomycins” (priority 2003, dated 2010).

Legend:
HIV-1 Rev = conditions: in vitro; FIG. 2
[1] = test system: adriamycin, amsacrine and mitoxantrone resistant P388 leukemia, other leukemias, B16 melanoma, Ridgway osteogenic and M5076 sarcomas and mammary adenocarinoma

For `CCOC(=O)/C=C\n1ncnc1-c1cc(Cl)ccc1N` [PKF050-638], the “difference in activity between a Rev-dependent assay and cytotoxicity to the same cells” value (HIV-1 Rev) is listed as 75 fold.

For `CCC(=C/[C@H](C)C/C=C/C(C)=C/[C@@H](C)C(=O)[C@@H](C)[C@H](O)[C@@H](C)C/C(C)=C/C(=O)O)/C=C/[C@@H]1OC(=O)C=C[C@@H]1C` [LMB, Leptomycin B], the acute toxicity ([1]; exacerbated upon more frequent or oral administration) is given as “gastrointestinal”, the antitumor activity ([1]; mouse murine and xenograph cancer models, low doses) is given as “Activity was observed at low doses” and the “difference in activity between a Rev-dependent assay and cytotoxicity to the same cells” value (HIV-1 Rev) is given as “approx. 250 fold”.
